Measurements published in the CheMixHub viscosity set.
Values joined by “and” are separate entries in the source; they are usually repeats but may differ in a detail not shown here. Equal values may be shown once.

Assays:
[1] = xn = mol fraction of the nth substance listed

C=C(C)C(=O)OCCCC
101 kPa
Conditions	viscosity [mPa·s]
298.15 K	0.8768
303.15 K	0.8077
308.15 K	0.7483
313.15 K	0.7012
318.15 K	0.6639

C=CCN=C=S
viscosity [mPa·s]
Conditions	298.15 K	303.15 K	313.15 K	323.15 K
100 kPa	–	–	0.592	–
101 kPa	0.662	0.671	–	0.526

C=CCc1ccc(O)c(OC)c1
Conditions	viscosity [mPa·s]
298.15 K, 101 kPa	6.93

CC(=O)[O-].CC[NH2+]CC
101 kPa
Conditions	viscosity
303.15 K	13.64 mPa·s and 13.64 mPa·s
308.15 K	11.83 mPa·s and 11.83 mPa·s
313.15 K	10.02 mPa·s

CC(C)(C)C(=O)O
101 kPa
Conditions	viscosity [mPa·s]
313.15 K	2.45
318.15 K	2.23
323.15 K	2.06

CC(C)NC(C)C
viscosity
Conditions	298.15 K	303.15 K	308.15 K
100 kPa	0.38 mPa·s and 0.382 mPa·s	0.36 mPa·s and 0.364 mPa·s	0.35 mPa·s and 0.347 mPa·s
101 kPa	0.382 mPa·s	0.364 mPa·s	0.347 mPa·s and 0.3089 mPa·s

CC(CC(C)(C)C)CP(=O)([O-])CC(C)CC(C)(C)C.CCCCCCCC[P+](C)(C)C (centres undefined)
101 kPa
Conditions	viscosity [mPa·s]
298.15 K	804
303.15 K	560
308.15 K	408
313.15 K	306
318.15 K	227
323.15 K	177

CCC(=O)c1ccccc1
viscosity
Conditions	303.15 K	313.15 K	318.15 K
100 kPa	1.51 mPa·s	–	–
101 kPa	1.51 mPa·s and 1.515 mPa·s and 1.622 mPa·s	1.423 mPa·s and 1.449 mPa·s	1.377 mPa·s

CCCCCCCCCCCCCCCCCCCc1ccccc1
Conditions	viscosity [mPa·s]
313.15 K, 101 kPa	8.33

CCCCCCCCCCCO
101.33 kPa
Conditions	viscosity [mPa·s]
293.15 K	16.95
298.15 K	13.83

CCCCCCCCCc1ccccc1
viscosity [mPa·s]
Conditions	293.15 K	303.15 K	313.15 K	323.15 K
100 kPa	–	–	2.094	–
102 kPa	3.14	2.51	2.05	1.72

CCCCCCn1cc[n+](C)c1.[Cl-]
101 kPa
Conditions	viscosity
293.15 K	11420 mPa·s
303.15 K	4206 mPa·s
313.15 K	1718 mPa·s
323.15 K	1879 mPa·s and 783.4 mPa·s

CCCC[N+]1(C)CCCC1.N#C[C-](C#N)C#N
101 kPa
Conditions	viscosity [mPa·s]
308.15 K	20.56
318.15 K	15.44

CCCC[N+]1(C)CCCCC1.N#C[S-]
Conditions	viscosity [mPa·s]
318.15 K, 101 kPa	264.5

CCOC(=O)CC(C)=O
100 kPa
Conditions	viscosity [mPa·s]
293.15 K	1.656
298.15 K	1.51

CCOC(=O)CCBr
Conditions	viscosity [mPa·s]
303.15 K, 101 kPa	1.867

CCOP(=O)([O-])OCC.CC[N+]1(C)CCOCC1
100 kPa
Conditions	viscosity [mPa·s]
293.15 K	12080
298.15 K	6680
303.15 K	3786
308.15 K	2325
313.15 K	1466
318.15 K	941.7
323.15 K	634

CC[NH3+].O=[N+]([O-])[O-]
viscosity
Conditions	293.15 K	298 K	298.15 K	303.15 K	308.15 K	313.15 K	318.15 K	323.15 K
100 kPa	40.61 mPa·s	–	34.49 mPa·s	29.65 mPa·s	25.76 mPa·s	22.67 mPa·s	20.12 mPa·s	–
101 kPa	43.5 mPa·s and 44.9 mPa·s	37.51 mPa·s	37.5 mPa·s and 36.5 mPa·s	31 mPa·s	26.5 mPa·s	22.8 mPa·s	20 mPa·s	17.6 mPa·s

CN1CCNCC1
101 kPa
Conditions	viscosity [mPa·s]
298.15 K	1.87
313.15 K	1.302

NCc1ccccc1
viscosity [mPa·s]
Conditions	303.15 K	313.15 K	323.15 K
100 kPa	1.497	1.262	1.071
101 kPa	1.415	–	–

O=CN1CCOCC1
viscosity
Conditions	298.15 K	303.15 K	308.15 K	313.15 K	323.15 K
101 kPa	7.656 mPa·s	6.626 mPa·s and 6.598 mPa·s	5.731 mPa·s	5.141 mPa·s and 5.068 mPa·s	4.036 mPa·s
101.3 kPa	7.613 mPa·s	–	–	–	–

OCCO
Conditions	viscosity
293.15 K, 101.3 kPa	21.4 mPa·s and 21.62 mPa·s
293.15 K, 101.32 kPa	19.2 mPa·s
297.85 K, 101 kPa	17.7 mPa·s
298.15 K, 100 kPa	17.7 mPa·s and 17.87 mPa·s
298.15 K, 101.3 kPa	16.1 mPa·s
298.15 K, 101.33 kPa	15.31 mPa·s
302.85 K, 101 kPa	14.4 mPa·s
303 K, 101 kPa	15 mPa·s
303.15 K, 101.33 kPa	12.24 mPa·s
307.85 K, 101 kPa	11.92 mPa·s
308.15 K, 100 kPa	11.07 mPa·s
308.15 K, 101 kPa	10.97 mPa·s and 12 mPa·s and 11.66 mPa·s
308.15 K, 101.33 kPa	9.945 mPa·s
312.95 K, 101 kPa	9.95 mPa·s
313.15 K, 101.3 kPa	9.53 mPa·s
313.15 K, 101.32 kPa	8.45 mPa·s
313.15 K, 101.33 kPa	9.17 mPa·s and 9.535 mPa·s
317.75 K, 101 kPa	8.44 mPa·s
318.15 K, 100 kPa	9.59 mPa·s and 7.888 mPa·s and 8.126 mPa·s
318.15 K, 101.3 kPa	8.08 mPa·s
318.15 K, 101.33 kPa	7.68 mPa·s
322.75 K, 101 kPa	7.19 mPa·s
323.15 K, 101.3 kPa	6.96 mPa·s and 6.91 mPa·s

S=C=S
Conditions	viscosity
293.15 K, 101 kPa	0.36 mPa·s and 0.365 mPa·s
298.15 K, 101.33 kPa	0.4077 mPa·s

CC(=O)Nc1ccc(O)cc1 + O
viscosity, [1], 101 kPa
Conditions	x1 = 0.00011	x1 = 0.000241	x1 = 0.000483	x1 = 0.000727	x1 = 0.000975	x1 = 0.00122
298.15 K	0.8928 mPa·s and 0.8928 mPa·s	0.8964 mPa·s and 0.8964 mPa·s	0.9001 mPa·s and 0.9001 mPa·s	0.9061 mPa·s and 0.9061 mPa·s	0.9121 mPa·s and 0.9121 mPa·s	0.9178 mPa·s and 0.9178 mPa·s
308.15 K	0.7208 mPa·s and 0.7208 mPa·s	0.7243 mPa·s and 0.7243 mPa·s	0.7281 mPa·s and 0.7279 mPa·s	0.7329 mPa·s and 0.7329 mPa·s	0.7378 mPa·s and 0.7378 mPa·s	0.7424 mPa·s and 0.7424 mPa·s
318.15 K	0.598 mPa·s and 0.598 mPa·s	0.6004 mPa·s and 0.6004 mPa·s	0.6053 mPa·s and 0.6053 mPa·s	0.6102 mPa·s and 0.6102 mPa·s	0.6151 mPa·s and 0.6151 mPa·s	0.6197 mPa·s and 0.6197 mPa·s

CC(C)[C@H](NC(=O)[C@H](C)N)C(=O)O + O
viscosity [mPa·s], [1], 101 kPa
Conditions	x1 = 3.62e-05	x1 = 7.46e-05	x1 = 0.000109	x1 = 0.000142	x1 = 0.0001835	x1 = 0.0002124	x1 = 0.0002514	x1 = 0.0002793	x1 = 0.0003251	x1 = 0.0003549
305.15 K	0.7756	0.7779	0.7783	0.7805	0.7822	0.7866	0.7955	0.8038	0.8095	0.8143
310.15 K	0.7078	0.7083	0.7121	0.7125	0.7162	0.7192	0.7239	0.7284	0.7327	0.7351
315.15 K	0.647	0.6501	0.6523	0.6554	0.6591	0.6601	0.6623	0.6675	0.6689	0.6701

CC(O)CN(CC(C)O)CC(C)O (centres undefined) + O
viscosity [mPa·s], [1], 101 kPa
Conditions	303.15 K	313.15 K	318.15 K
x1 = 0.005	–	–	0.7315
x1 = 0.03	2.395	1.775	–

CN1CCNCC1 + O
Conditions	viscosity [mPa·s]
[1], 298.15 K, 101 kPa, x1 = 0.1039	10.75

NCc1ccccc1 + O
viscosity [mPa·s], [1]
Conditions	293.15 K	303.15 K	313.15 K	323.15 K
100 kPa, x1 = 0.1	–	2.231	1.725	1.385
100 kPa, x1 = 0.2	–	3.098	2.324	1.793
100 kPa, x1 = 0.3	–	3.387	2.512	1.956
100 kPa, x1 = 0.4	–	3.323	2.51	1.93
100 kPa, x1 = 0.5	–	3.1	2.353	1.831
100 kPa, x1 = 0.6	–	2.669	2.064	1.648
100 kPa, x1 = 0.7	–	2.308	1.823	1.469
100 kPa, x1 = 0.8	–	1.957	1.591	1.309
100 kPa, x1 = 0.9	–	1.681	1.396	1.182
101 kPa, x1 = 0.1003	3.23	2.28	1.7	1.38
101 kPa, x1 = 0.2001	4.4	3.07	2.25	1.78
101 kPa, x1 = 0.3	4.8	3.37	2.48	1.93
101 kPa, x1 = 0.3997	4.63	3.3	2.46	1.91
101 kPa, x1 = 0.5002	4.16	3.05	2.28	1.79
101 kPa, x1 = 0.6	3.57	2.67	2.03	1.63
101 kPa, x1 = 0.7	2.95	2.28	1.78	1.47
101 kPa, x1 = 0.7999	2.48	1.94	1.55	1.3
101 kPa, x1 = 0.9	2.1	1.68	1.36	1.15

O=S(=O)([O-])[O-].[Co+2] + O
viscosity, [1], 101.33 kPa
Conditions	x1 = 0.000905	x1 = 0.002718	x1 = 0.00453	x1 = 0.006344	x1 = 0.008159	x1 = 0.04354	x1 = 0.05633
298.15 K	–	–	–	–	–	3.182 mPa·s	–
308.15 K	0.7454 mPa·s	0.799 mPa·s	0.8405 mPa·s	0.897 mPa·s	0.949 mPa·s	–	–
313.15 K	0.6751 mPa·s	0.7255 mPa·s	0.7615 mPa·s	0.814 mPa·s	0.8555 mPa·s	–	–
323.15 K	0.5699 mPa·s	0.6065 mPa·s	0.642 mPa·s	0.689 mPa·s	0.739 mPa·s	–	3.091 mPa·s and 3.091 mPa·s

CCCCCCCCCCCCCCCCCC + c1ccccc1
[1], 101 kPa, x2 = 0.5
Conditions	viscosity [mPa·s]
298 K	2.123
318 K	1.501

O=CN1CCOCC1 + c1ccccc1
[1], 298.15 K, 101.3 kPa
Conditions	viscosity [mPa·s]
x2 = 0.03787	6.858
x2 = 0.07912	6.137
x2 = 0.1309	5.329
x2 = 0.22	4.199
x2 = 0.3483	2.992
x2 = 0.4314	2.381
x2 = 0.5526	1.734
x2 = 0.6351	1.413
x2 = 0.7176	1.157
x2 = 0.7536	1.058
x2 = 0.83	0.88
x2 = 0.894	0.767
x2 = 0.9506	0.671

S=C=S + c1ccccc1
[1], 298.15 K, 101 kPa
Conditions	viscosity [mPa·s]
x2 = 0.08675	0.376
x2 = 0.3427	0.446
x2 = 0.7541	0.544

O=C1c2ccccc2C(=O)N1c1ccccc1 + c1ccncc1
Conditions	viscosity [mPa·s]
[1], 298.15 K, 101 kPa, x1 = 0.0129	0.9606
